Experiments:
Type in all cases: cell-based
[1] = tested on: Propionibacterium granulosum ATCC 25564; test: Broth culture growth with nisin; conditions: 400 International Units per milliliter, anaerobic, 37° C., 24 hours
Experimental: (§1) Nisin at a final concentration of 400 International Units per milliliter was also added to broth cultures of each of the above bacteria strains. The broth cultures were incubated anaerobically at 37° C. for 24 hours.

[2] = tested on: Propionibacterium acnes ATCC 11827; test: Broth culture growth with nisin; conditions: 400 International Units per milliliter, anaerobic, 37° C., 24 hours
Experimental: as §1

[3] = tested on: Propionibacterium acnes ATCC 6919; test: Broth culture growth with nisin; conditions: 400 International Units per milliliter, anaerobic, 37° C., 24 hours
Experimental: as §1

[4] = tested on: Propionibacterium avidum ATCC 25577; test: Broth culture growth with nisin; conditions: 400 International Units per milliliter, anaerobic, 37° C., 24 hours
Experimental: as §1

[5] = tested on: Propionibacterium granulosum ATCC 25564; test: Spot on lawn method (Example IV), nisin; conditions: 4,000 International Units per milliliter
Experimental: (§2) Propionibacterium acnes, Propionibacterium granulosum, or other cutaneous propionibacteria to be examined for sensitivity to the bacteriocin are grown in actinomyces broth at 37° C. for 2 days under anaerobic conditions. Cultures (15 μL) being examined for sensitivity are added to soft actinomyces agar (5 ml) and the mixture is applied uniformly over each actinomyces agar plate. Preparations concentrated so as to contain 6,400 Activity Units/ml of bacteriocins are spotted (25 μl spots) onto the surface of the prepared plates. These plates are held at 37° C. for 2 days under anaerobic conditions to permit growth of the cutaneous culture and examined for zones of inhibition (lack of growth) where the bacteriocin was applied. Zones are evidence of bacteriocin inhibition.
(§3) Specifically, a solution of nisin containing 4,000 International Units per milliliter was tested for activity against Propionibacterium acnes ATCC 6919, Propionibacterium acnes ATCC 11827, Propionibacterium avidum ATCC 25577 and Propionibacterium granulosum ATCC 25564 according to the method described in Example IV above. It was observed that nisin inhibited all of the cutaneous cultures.

[6] = tested on: Propionibacterium acnes ATCC 11827; test: Spot on lawn method (Example IV), nisin; conditions: 4,000 International Units per milliliter
Experimental: as §2, §3

[7] = tested on: Propionibacterium acnes ATCC 6919; test: Spot on lawn method (Example IV), nisin; conditions: 4,000 International Units per milliliter
Experimental: as §2, §3

[8] = tested on: Propionibacterium avidum ATCC 25577; test: Spot on lawn method (Example IV), nisin; conditions: 4,000 International Units per milliliter
Experimental: as §2, §3

nisin
markedly reduced the growth: growth of broth culture [1] | growth of broth culture [2] | growth of broth culture [3] | growth of broth culture [4]
inhibited: inhibition (zones) [5] | inhibition (zones) [6] | inhibition (zones) [7] | inhibition (zones) [8]

— patent publication US6221847A, “Composition and method for treating bacterial infection” (Clemson University, priority 1999, dated 2001)
